Laboratory results from the supplement of paper PMC10307832.

Experiments:
Experiment in all cases: relative viability (nuclei count vs DMSO), 5 days (fraction); higher = more cells survive
NPK76-II-72-1 + OSI-027 = compound: CC1CC(=O)N(C2=CN=C(N=C2N1C3CCCC3)NC4=C(C=C(C=C4)C(=O)NC5CCN(CC5)C)OC)C [NPK76-II-72-1] + COc1cccc2cc(-c3nc([C@H]4CC[C@H](C(=O)O)CC4)n4ncnc(N)c34)[nH]c12 [OSI-027] (partner 0.5 µM)
How it was run: (§1)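 Values are medians from duplicate plates. Each reflects relative viability, defined as the nuclei count of treated wells over that of vehicle wells. Lung cancer cell lines in 1536-well plates were pin-tool dosed one day after seeding with one drug alone or with a fixed anchor-drug dose plus five library-drug doses (not always all listed) in √10 steps, then fixed, stained and imaged at 4× after 5 days.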

BI-2536 + Alpelisib = compound: CC[C@@H]1C(=O)N(C)c2cnc(Nc3ccc(C(=O)NC4CCN(C)CC4)cc3OC)nc2N1C1CCCC1 [BI-2536] + Cc1nc(NC(=O)N2CCC[C@H]2C(N)=O)sc1-c1ccnc(C(C)(C)C(F)(F)F)c1 [Alpelisib] (partner 2 µM)
How it was run: as §1

[1] = compound: CC1CC(=O)N(C2=CN=C(N=C2N1C3CCCC3)NC4=C(C=C(C=C4)C(=O)NC5CCN(CC5)C)OC)C [NPK76-II-72-1] + Cc1cc(Nc2cc(N3CCN(C)CC3)nc(Sc3ccc(NC(=O)C4CC4)cc3)n2)n[nH]1 [Tozasertib] (partner 0.1 µM)
How it was run: as §1

NPK76-II-72-1 + AZD7762 = compound: CC1CC(=O)N(C2=CN=C(N=C2N1C3CCCC3)NC4=C(C=C(C=C4)C(=O)NC5CCN(CC5)C)OC)C [NPK76-II-72-1] + NC(=O)Nc1cc(-c2cccc(F)c2)sc1C(=O)N[C@H]1CCCNC1 [AZD7762] (partner 0.2 µM)
How it was run: as §1

Cell Line	relative viability (NPK76-II-72-1 + OSI-027; first compound 0.01 µM)	relative viability (NPK76-II-72-1 + OSI-027; first compound 0.03162 µM)	relative viability (NPK76-II-72-1 + OSI-027; first compound 0.1 µM)	relative viability (NPK76-II-72-1 + OSI-027; first compound 0.3162 µM)	relative viability (NPK76-II-72-1 + OSI-027; first compound 1 µM)	relative viability (BI-2536 + Alpelisib; first compound 0.01 µM)	relative viability (BI-2536 + Alpelisib; first compound 0.03162 µM)	relative viability (BI-2536 + Alpelisib; first compound 0.1 µM)	relative viability (BI-2536 + Alpelisib; first compound 0.3162 µM)	relative viability (BI-2536 + Alpelisib; first compound 1 µM)	relative viability ([1]; first compound 0.01 µM)	relative viability ([1]; first compound 0.03162 µM)	relative viability ([1]; first compound 0.1 µM)	relative viability ([1]; first compound 0.3162 µM)	relative viability ([1]; first compound 1 µM)	relative viability (NPK76-II-72-1 + AZD7762; first compound 0.01 µM)	relative viability (NPK76-II-72-1 + AZD7762; first compound 0.03162 µM)	relative viability (NPK76-II-72-1 + AZD7762; first compound 0.1 µM)	relative viability (NPK76-II-72-1 + AZD7762; first compound 0.3162 µM)	relative viability (NPK76-II-72-1 + AZD7762; first compound 1 µM)
COR-L23	0.645	0.858	0.864	0.775	0.764	0.853	0.675	0.18	0.0928	0.0868	0.195	0.23	0.218	0.182	0.192	–	–	–	–	–
NCI-H1299	–	–	–	–	–	0.952	1.15	1	0.278	0.339	–	–	–	–	–	–	–	–	–	–
NCI-H1650	0.609	0.716	0.576	0.414	0.738	–	–	–	–	–	0.397	0.444	0.429	0.501	0.386	–	–	–	–	–
COR-L 105	0.644	0.724	0.718	0.609	1.09	0.744	1.07	0.817	0.252	0.26	0.351	0.348	0.305	0.407	0.328	–	–	–	–	–
ChaGo-K-1	0.561	0.622	0.582	0.63	0.653	–	–	–	–	–	0.239	0.256	0.238	0.225	0.231	0.829	0.873	0.833	0.809	0.839
NCI-H2228	0.427	0.615	0.547	0.55	0.724	0.899	0.373	0.193	0.211	0.202	0.243	0.265	0.341	0.213	0.422	–	–	–	–	–
NCI-H1648	0.239	0.244	–	–	0.26	–	–	–	–	–	0.523	0.431	–	–	0.474	0.639	0.563	0.57	0.66	0.533
NCI-H661	0.667	0.772	0.746	0.588	0.742	0.149	0.577	0.619	0.216	0.24	0.351	0.351	0.35	0.386	0.36	–	–	–	–	–
NCI-H1563	0.698	0.804	0.739	0.749	0.778	0.858	0.933	0.928	0.598	0.583	–	–	–	–	–	–	–	–	–	–
A549	–	–	–	–	–	0.767	0.814	0.698	0.0447	0.0443	–	–	–	–	–	–	–	–	–	–
NCI-H522	0.72	0.969	0.681	0.623	0.846	–	–	–	–	–	0.617	0.443	0.562	0.55	0.54	0.945	0.826	0.786	–	0.809
NCI-H1623	0.422	0.405	0.432	0.362	0.461	–	–	–	–	–	0.467	0.434	0.353	0.341	0.467	–	–	–	–	–
SW 900	0.542	0.475	0.513	0.601	0.713	–	–	–	–	–	0.675	0.524	0.482	0.536	0.644	0.535	0.645	0.771	0.569	0.761
IA-LM	–	–	–	–	–	0.729	0.652	0.588	0.0728	0.0917	–	–	–	–	–	–	–	–	–	–
EBC-1	–	–	–	–	–	0.852	0.799	0.564	0.175	0.179	–	–	–	–	–	–	–	–	–	–
